Key:
Assay in all cases: Kinase profiling
Type in all cases: biochemical
ULK3(h) = target: T1, ULK3(h) (Homo sapiens, UniProt Q6PHR2)
T1 construct: purchased Eurofins Cerep SA (KinaseProfiler)
Method: (§1) 380 kinases inhibitory activities of SKLB-D18 were conducted by Eurofins Cerep SA. The result was illustrated by kinase tree (http://www.kinhub.org/kinmap/).

cKit(h) = target: T2, cKit(h) (Homo sapiens, UniProt P10721)
T2 construct: purchased Eurofins Cerep SA (KinaseProfiler)
Method: as §1

Aurora-A(h) = target: T3, Aurora-A(h) (Homo sapiens, UniProt O14965)
T3 construct: purchased Eurofins Cerep SA (KinaseProfiler)
Method: as §1

CaMKIIδ(h) = target: T4, CaMKIIδ(h) (Homo sapiens, UniProt Q13557)
T4 construct: purchased Eurofins Cerep SA (KinaseProfiler)
Method: as §1

EphA7(h) = target: T5, EphA7(h) (Homo sapiens, UniProt Q15375)
T5 construct: purchased Eurofins Cerep SA (KinaseProfiler)
Method: as §1

FGFR4(h) = target: T6, FGFR4(h) (Homo sapiens, UniProt P22455)
T6 construct: purchased Eurofins Cerep SA (KinaseProfiler)
Method: as §1

DAPK2(h) = target: T7, DAPK2(h) (Homo sapiens, UniProt Q9UIK4)
T7 construct: purchased Eurofins Cerep SA (KinaseProfiler)
Method: as §1

CK2(h) = target: T8, CK2(h) (Homo sapiens, UniProt P68400)
T8 construct: purchased Eurofins Cerep SA (KinaseProfiler)
Method: as §1

TNIK(h) = target: T9, TNIK(h) (Homo sapiens, UniProt Q9UKE5)
T9 construct: purchased Eurofins Cerep SA (KinaseProfiler)
Method: as §1

Hck(h) activated = target: T10, Hck(h) activated (Homo sapiens, UniProt P08631)
T10 construct: purchased Eurofins Cerep SA (KinaseProfiler)
Method: as §1

TSSK2(h) = target: T11, TSSK2(h) (Homo sapiens, UniProt Q96PF2)
T11 construct: purchased Eurofins Cerep SA (KinaseProfiler)
Method: as §1

ULK2(h) = target: T12, ULK2(h) (Homo sapiens, UniProt Q8IYT8)
T12 construct: purchased Eurofins Cerep SA (KinaseProfiler)
Method: as §1

Cdc7/cyclinB1(h) = target: T13, Cdc7/cyclinB1(h) (Homo sapiens, UniProt O00311)
T13 construct: purchased Eurofins Cerep SA (KinaseProfiler)
Method: as §1

Pim-1(h) = target: T14, Pim-1(h) (Homo sapiens, UniProt P11309)
T14 construct: purchased Eurofins Cerep SA (KinaseProfiler)
Method: as §1

SGK2(h) = target: T15, SGK2(h) (Homo sapiens, UniProt Q9HBY8)
T15 construct: purchased Eurofins Cerep SA (KinaseProfiler)
Method: as §1

CDK2/cyclinA(h) = target: T16, CDK2/cyclinA(h) (Homo sapiens, UniProt P24941)
T16 construct: purchased Eurofins Cerep SA (KinaseProfiler)
Method: as §1

SGK3(h) = target: T17, SGK3(h) (Homo sapiens, UniProt Q96BR1)
T17 construct: purchased Eurofins Cerep SA (KinaseProfiler)
Method: as §1

ICK(h) = target: T18, ICK(h) (Homo sapiens, UniProt Q9UPZ9)
T18 construct: purchased Eurofins Cerep SA (KinaseProfiler)
Method: as §1

EphA1(h) = target: T19, EphA1(h) (Homo sapiens, UniProt P21709)
T19 construct: purchased Eurofins Cerep SA (KinaseProfiler)
Method: as §1

EphB2(h) = target: T20, EphB2(h) (Homo sapiens, UniProt P29323)
T20 construct: purchased Eurofins Cerep SA (KinaseProfiler)
Method: as §1

CDK7/cyclinH/MAT1(h) = target: T21, CDK7/cyclinH/MAT1(h) (Homo sapiens, UniProt P50613)
T21 construct: purchased Eurofins Cerep SA (KinaseProfiler)
Method: as §1

BTK(h) = target: T22, BTK(h) (Homo sapiens, UniProt Q06187)
T22 construct: purchased Eurofins Cerep SA (KinaseProfiler)
Method: as §1

MAPKAP-K3(h) = target: T23, MAPKAP-K3(h) (Homo sapiens, UniProt Q16644)
T23 construct: purchased Eurofins Cerep SA (KinaseProfiler)
Method: as §1

MARK3(h) = target: T24, MARK3(h) (Homo sapiens, UniProt P27448)
T24 construct: purchased Eurofins Cerep SA (KinaseProfiler)
Method: as §1

ErbB4(h) = target: T25, ErbB4(h) (Homo sapiens, UniProt Q15303)
T25 construct: purchased Eurofins Cerep SA (KinaseProfiler)
Method: as §1

CHK2(h) = target: T26, CHK2(h) (Homo sapiens, UniProt O96017)
T26 construct: purchased Eurofins Cerep SA (KinaseProfiler)
Method: as §1

DNA-PK(h) = target: T27, DNA-PK(h) (Homo sapiens, UniProt P78527)
T27 construct: purchased Eurofins Cerep SA (KinaseProfiler)
Method: as §1

TAO1(h) = target: T28, TAO1(h) (Homo sapiens, UniProt Q7L7X3)
T28 construct: purchased Eurofins Cerep SA (KinaseProfiler)
Method: as §1

TAO2(h) = target: T29, TAO2(h) (Homo sapiens, UniProt Q9UL54)
T29 construct: purchased Eurofins Cerep SA (KinaseProfiler)
Method: as §1

CDK1/cyclinB(h) = target: T30, CDK1/cyclinB(h) (Homo sapiens, UniProt P06493)
T30 construct: purchased Eurofins Cerep SA (KinaseProfiler)
Method: as §1

TTBK2(h) = target: T31, TTBK2(h) (Homo sapiens, UniProt Q6IQ55)
T31 construct: purchased Eurofins Cerep SA (KinaseProfiler)
Method: as §1

MST1(h) = target: T32, MST1(h) (Homo sapiens, UniProt Q13043)
T32 construct: purchased Eurofins Cerep SA (KinaseProfiler)
Method: as §1

CDK17/cyclinY(h) = target: T33, CDK17/cyclinY(h) (Homo sapiens, UniProt Q00537)
T33 construct: purchased Eurofins Cerep SA (KinaseProfiler)
Method: as §1

PRK1(h) = target: T34, PRK1(h) (Homo sapiens, UniProt Q16512)
T34 construct: purchased Eurofins Cerep SA (KinaseProfiler)
Method: as §1

MAK(h) = target: T35, MAK(h) (Homo sapiens, UniProt P20794)
T35 construct: purchased Eurofins Cerep SA (KinaseProfiler)
Method: as §1

MOK(h) = target: T36, MOK(h) (Homo sapiens, UniProt Q9UQ07)
T36 construct: purchased Eurofins Cerep SA (KinaseProfiler)
Method: as §1

STK39(h) = target: T37, STK39(h) (Homo sapiens, UniProt Q9UEW8)
T37 construct: purchased Eurofins Cerep SA (KinaseProfiler)
Method: as §1

DRAK1(h) = target: T38, DRAK1(h) (Homo sapiens, UniProt Q9UEE5)
T38 construct: purchased Eurofins Cerep SA (KinaseProfiler)
Method: as §1

KDR(h) = target: T39, KDR(h) (Homo sapiens, UniProt P35968)
T39 construct: purchased Eurofins Cerep SA (KinaseProfiler)
Method: as §1

PAR-1Bα(h) = target: T40, PAR-1Bα(h) (Homo sapiens, UniProt Q7KZI7)
T40 construct: purchased Eurofins Cerep SA (KinaseProfiler)
Method: as §1

STK33(h) = target: T41, STK33(h) (Homo sapiens, UniProt Q9BYT3)
T41 construct: purchased Eurofins Cerep SA (KinaseProfiler)
Method: as §1

T22 sequence (Q06187 whole entry): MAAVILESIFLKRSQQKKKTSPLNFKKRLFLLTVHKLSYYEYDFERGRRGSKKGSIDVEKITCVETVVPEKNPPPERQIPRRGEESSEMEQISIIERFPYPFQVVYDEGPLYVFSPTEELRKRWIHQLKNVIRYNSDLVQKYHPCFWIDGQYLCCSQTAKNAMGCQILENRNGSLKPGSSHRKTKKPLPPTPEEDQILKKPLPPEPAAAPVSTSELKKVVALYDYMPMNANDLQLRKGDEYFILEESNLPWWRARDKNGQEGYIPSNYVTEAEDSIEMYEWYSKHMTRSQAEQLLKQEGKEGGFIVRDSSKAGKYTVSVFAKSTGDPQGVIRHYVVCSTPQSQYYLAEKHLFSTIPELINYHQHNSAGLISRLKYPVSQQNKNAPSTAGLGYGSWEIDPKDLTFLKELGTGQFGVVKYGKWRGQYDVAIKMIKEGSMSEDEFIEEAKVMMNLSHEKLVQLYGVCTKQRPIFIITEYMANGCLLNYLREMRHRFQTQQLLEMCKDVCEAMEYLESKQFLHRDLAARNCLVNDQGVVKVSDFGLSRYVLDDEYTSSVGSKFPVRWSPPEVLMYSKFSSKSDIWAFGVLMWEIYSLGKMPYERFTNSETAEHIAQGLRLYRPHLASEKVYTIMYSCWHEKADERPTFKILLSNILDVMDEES
T28 sequence (Q7L7X3 whole entry): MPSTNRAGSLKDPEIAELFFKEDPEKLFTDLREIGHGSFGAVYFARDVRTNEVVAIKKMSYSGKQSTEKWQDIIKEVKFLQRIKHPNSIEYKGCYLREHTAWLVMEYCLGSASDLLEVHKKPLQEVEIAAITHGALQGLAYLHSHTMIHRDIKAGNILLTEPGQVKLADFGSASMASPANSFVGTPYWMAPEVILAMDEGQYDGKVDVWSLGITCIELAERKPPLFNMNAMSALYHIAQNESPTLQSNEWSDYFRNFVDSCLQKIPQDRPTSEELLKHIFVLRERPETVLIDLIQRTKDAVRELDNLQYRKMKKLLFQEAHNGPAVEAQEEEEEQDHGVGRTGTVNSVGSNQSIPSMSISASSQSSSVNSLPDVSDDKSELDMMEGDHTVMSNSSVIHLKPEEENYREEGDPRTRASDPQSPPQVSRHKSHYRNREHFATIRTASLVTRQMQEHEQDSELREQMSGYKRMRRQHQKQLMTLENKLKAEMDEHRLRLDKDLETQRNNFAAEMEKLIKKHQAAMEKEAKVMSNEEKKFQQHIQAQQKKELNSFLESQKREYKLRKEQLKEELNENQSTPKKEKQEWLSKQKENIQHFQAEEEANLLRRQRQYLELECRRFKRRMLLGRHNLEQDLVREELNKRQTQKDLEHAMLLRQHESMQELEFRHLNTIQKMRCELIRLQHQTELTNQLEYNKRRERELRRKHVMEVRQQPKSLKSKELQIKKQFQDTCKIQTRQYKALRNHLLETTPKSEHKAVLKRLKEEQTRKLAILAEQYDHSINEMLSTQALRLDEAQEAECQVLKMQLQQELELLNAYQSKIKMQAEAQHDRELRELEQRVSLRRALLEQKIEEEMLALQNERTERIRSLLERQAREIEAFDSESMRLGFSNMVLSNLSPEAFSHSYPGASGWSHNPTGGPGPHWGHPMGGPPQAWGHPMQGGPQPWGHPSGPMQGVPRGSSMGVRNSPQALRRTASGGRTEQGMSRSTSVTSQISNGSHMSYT
T1 sequence (Q6PHR2 whole entry): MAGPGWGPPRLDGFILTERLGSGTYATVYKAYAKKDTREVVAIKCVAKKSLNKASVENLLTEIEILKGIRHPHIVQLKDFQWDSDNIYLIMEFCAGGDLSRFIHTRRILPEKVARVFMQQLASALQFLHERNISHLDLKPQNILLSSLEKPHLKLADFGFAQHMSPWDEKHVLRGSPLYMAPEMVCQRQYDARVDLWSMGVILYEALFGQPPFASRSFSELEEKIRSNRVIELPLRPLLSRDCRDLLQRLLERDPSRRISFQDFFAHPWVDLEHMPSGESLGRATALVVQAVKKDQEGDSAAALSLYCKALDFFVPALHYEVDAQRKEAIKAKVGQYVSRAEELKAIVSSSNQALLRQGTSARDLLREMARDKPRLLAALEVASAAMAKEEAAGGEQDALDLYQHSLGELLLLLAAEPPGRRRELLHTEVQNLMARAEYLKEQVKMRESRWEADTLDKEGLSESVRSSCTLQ
T11 sequence (Q96PF2 whole entry): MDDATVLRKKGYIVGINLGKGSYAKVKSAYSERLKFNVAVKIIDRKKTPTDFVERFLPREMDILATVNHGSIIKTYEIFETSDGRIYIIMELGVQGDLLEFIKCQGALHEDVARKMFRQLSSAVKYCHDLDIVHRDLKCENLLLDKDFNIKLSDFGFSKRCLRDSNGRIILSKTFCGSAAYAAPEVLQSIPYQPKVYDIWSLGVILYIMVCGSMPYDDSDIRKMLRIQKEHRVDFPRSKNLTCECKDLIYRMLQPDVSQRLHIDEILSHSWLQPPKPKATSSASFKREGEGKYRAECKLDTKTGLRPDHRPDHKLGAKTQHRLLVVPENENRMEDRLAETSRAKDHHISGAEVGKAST
T25 sequence (Q15303 26-1308): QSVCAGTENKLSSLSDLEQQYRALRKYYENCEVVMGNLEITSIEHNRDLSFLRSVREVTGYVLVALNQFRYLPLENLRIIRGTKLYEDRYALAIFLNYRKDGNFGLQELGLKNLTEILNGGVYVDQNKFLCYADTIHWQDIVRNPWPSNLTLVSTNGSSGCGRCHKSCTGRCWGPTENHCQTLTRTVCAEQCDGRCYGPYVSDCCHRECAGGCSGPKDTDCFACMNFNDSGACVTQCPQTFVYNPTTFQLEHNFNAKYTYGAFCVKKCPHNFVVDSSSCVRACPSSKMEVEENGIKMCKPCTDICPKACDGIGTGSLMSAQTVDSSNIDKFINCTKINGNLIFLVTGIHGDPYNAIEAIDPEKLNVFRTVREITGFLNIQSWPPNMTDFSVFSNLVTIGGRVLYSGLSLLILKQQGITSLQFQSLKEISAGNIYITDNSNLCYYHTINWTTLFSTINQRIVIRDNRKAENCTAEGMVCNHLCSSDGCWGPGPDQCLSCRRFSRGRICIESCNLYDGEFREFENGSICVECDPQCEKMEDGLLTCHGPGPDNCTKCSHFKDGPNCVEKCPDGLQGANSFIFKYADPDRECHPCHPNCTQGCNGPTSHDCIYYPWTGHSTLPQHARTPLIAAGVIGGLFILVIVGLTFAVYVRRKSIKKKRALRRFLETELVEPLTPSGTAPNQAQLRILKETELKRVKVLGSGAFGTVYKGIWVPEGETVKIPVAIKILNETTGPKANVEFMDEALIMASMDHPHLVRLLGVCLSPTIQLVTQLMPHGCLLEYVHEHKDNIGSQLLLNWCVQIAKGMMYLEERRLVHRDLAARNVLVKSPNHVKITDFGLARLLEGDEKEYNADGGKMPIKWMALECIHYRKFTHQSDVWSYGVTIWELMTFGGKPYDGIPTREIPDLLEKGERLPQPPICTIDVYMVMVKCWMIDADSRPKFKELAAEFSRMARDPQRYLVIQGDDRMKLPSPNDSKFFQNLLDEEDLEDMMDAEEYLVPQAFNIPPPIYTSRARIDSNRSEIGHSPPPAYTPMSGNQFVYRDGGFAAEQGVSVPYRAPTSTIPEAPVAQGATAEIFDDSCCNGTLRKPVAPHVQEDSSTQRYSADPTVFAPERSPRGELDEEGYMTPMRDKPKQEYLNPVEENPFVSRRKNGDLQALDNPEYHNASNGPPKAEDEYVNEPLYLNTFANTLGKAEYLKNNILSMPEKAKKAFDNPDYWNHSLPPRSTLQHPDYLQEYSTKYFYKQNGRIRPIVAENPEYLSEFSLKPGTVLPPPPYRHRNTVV
T14 sequence (P11309 whole entry): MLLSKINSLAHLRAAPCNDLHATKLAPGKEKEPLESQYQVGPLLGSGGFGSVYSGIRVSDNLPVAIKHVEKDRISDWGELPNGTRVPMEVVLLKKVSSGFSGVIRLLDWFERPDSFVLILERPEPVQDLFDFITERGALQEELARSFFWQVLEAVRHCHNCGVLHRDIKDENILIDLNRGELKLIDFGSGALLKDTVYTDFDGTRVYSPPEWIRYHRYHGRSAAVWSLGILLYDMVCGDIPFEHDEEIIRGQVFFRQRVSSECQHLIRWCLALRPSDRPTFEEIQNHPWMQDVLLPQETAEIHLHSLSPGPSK
T32 sequence (Q13043 whole entry): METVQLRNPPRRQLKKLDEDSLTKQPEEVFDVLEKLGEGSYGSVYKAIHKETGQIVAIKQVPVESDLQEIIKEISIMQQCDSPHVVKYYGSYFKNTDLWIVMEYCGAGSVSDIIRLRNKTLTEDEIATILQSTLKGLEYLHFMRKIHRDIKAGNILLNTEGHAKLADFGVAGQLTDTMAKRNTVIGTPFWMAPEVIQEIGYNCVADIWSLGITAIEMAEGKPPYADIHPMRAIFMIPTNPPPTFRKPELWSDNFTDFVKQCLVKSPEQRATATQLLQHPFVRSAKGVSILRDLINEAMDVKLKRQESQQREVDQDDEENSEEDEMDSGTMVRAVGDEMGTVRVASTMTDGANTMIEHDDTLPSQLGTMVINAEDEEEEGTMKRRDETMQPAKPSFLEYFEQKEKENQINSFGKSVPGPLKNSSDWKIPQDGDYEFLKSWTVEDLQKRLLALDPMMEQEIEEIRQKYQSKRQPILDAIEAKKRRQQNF
T36 sequence (Q9UQ07 whole entry): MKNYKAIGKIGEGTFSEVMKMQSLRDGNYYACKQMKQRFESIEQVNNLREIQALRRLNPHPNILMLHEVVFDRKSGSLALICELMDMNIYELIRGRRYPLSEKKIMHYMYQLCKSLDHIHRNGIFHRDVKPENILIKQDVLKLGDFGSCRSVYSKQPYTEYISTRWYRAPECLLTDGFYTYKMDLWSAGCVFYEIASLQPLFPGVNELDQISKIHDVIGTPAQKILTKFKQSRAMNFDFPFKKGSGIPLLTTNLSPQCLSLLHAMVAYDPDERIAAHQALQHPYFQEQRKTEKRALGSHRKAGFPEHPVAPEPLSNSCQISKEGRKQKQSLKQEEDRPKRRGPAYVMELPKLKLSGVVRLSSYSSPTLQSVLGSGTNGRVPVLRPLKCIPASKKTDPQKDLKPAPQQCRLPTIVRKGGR

## CN(C)Cc1cccc(Nc2ncc(Cl)c(-c3csc(C(=O)NN4CCOCC4)c3)n2)c1 [SKLB-D18, 4-(5-chloro-2-((3-((dimethylamino)methyl)phenyl)amino)pyrimidin-4-yl)-N-morpholinothiophene-2-carboxamide]
ULK3(h)
  inhibition at 1 µM: 45%
cKit(h)
  inhibition at 1 µM: 69%
Aurora-A(h)
  inhibition at 1 µM: 51%
CaMKIIδ(h)
  inhibition at 1 µM: 47%
EphA7(h)
  inhibition at 1 µM: 38%
FGFR4(h)
  inhibition at 1 µM: 8%
DAPK2(h)
  inhibition at 1 µM: 53%
CK2(h)
  inhibition at 1 µM: 68%
TNIK(h)
  inhibition at 1 µM: 48%
Hck(h) activated
  inhibition at 1 µM: 32%
TSSK2(h)
  inhibition at 1 µM: -2%
ULK2(h)
  inhibition at 1 µM: 67%
Cdc7/cyclinB1(h)
  inhibition at 1 µM: 30%
Pim-1(h)
  inhibition at 1 µM: 37%
SGK2(h)
  inhibition at 1 µM: 11%
CDK2/cyclinA(h)
  inhibition at 1 µM: 58%
SGK3(h)
  inhibition at 1 µM: 9%
ICK(h)
  inhibition at 1 µM: 20%
EphA1(h)
  inhibition at 1 µM: 10%
EphB2(h)
  inhibition at 1 µM: -1%
CDK7/cyclinH/MAT1(h)
  inhibition at 1 µM: 57%
BTK(h)
  inhibition at 1 µM: 8%
MAPKAP-K3(h)
  inhibition at 1 µM: -10%
MARK3(h)
  inhibition at 1 µM: 68%
ErbB4(h)
  inhibition at 1 µM: -16%
CHK2(h)
  inhibition at 1 µM: 19%
DNA-PK(h)
  inhibition at 1 µM: 10%
TAO1(h)
  inhibition at 1 µM: 62%
TAO2(h)
  inhibition at 1 µM: 64%
CDK1/cyclinB(h)
  inhibition at 1 µM: 44%
TTBK2(h)
  inhibition at 1 µM: 0%
MST1(h)
  inhibition at 1 µM: 45%
CDK17/cyclinY(h)
  inhibition at 1 µM: 57%
PRK1(h)
  inhibition at 1 µM: 73%
MAK(h)
  inhibition at 1 µM: 46%
MOK(h)
  inhibition at 1 µM: 31%
STK39(h)
  inhibition at 1 µM: 37%
DRAK1(h)
  inhibition at 1 µM: 44%
KDR(h)
  inhibition at 1 µM: 66%
PAR-1Bα(h)
  inhibition at 1 µM: 65%
STK33(h)
  inhibition at 1 µM: 63%

From article PMC11842588, “A first-in-class selective inhibitor of ERK1/2 and ERK5 overcomes drug resistance with a single-molecule strategy” (Signal Transduction and Targeted Therapy, 2025)
